Counter-ions that a name gives are not always drawn.

In test [1] the test system is W28729. As to the kind of experiment: W28729 expression by real-time quantitative PCR in PBMC treated in vitro. The test is classed as cell-based. Particulars: human PBMC in vitro, 10n-M, 4 hours. The method, then: Taqman® reactions were prepared as follows: 100 ng total RNA; 25 nM-750 nM Forward Primer; 25 nM-750 nM Reverse Primer; 200 nM-400 nM Taqman® Probe (fluorescent dye labeled oligonucleotide primer); 1X Buffer A (Applied Biosystems, Foster City, Calif., USA); 5.5 mM MgCl2; 300 μM DATP, dGTP, dTTP, dCTP; 1 U Amplitaq Gold; 20 U Superscript 2; 1 U RNase Inhibitor. Real-time PCR was performed using an Applied Biosystems 7700 Sequence Detection System. Conditions were as follows: 48° C. for 20 minutes (reverse transcription), 95° C. for 10 minutes (denaturation and activation of Amplitaq Gold), 40 cycles of PCR (95° C. for 15 seconds, 60° C. for 1 minutes).
The Sequence Detection System generates a Ct (threshold cycle) value that is used to calculate a concentration for each input messenger RNA template. Messenger RNA levels for each gene or fragment thereof of interest were normalized to GAPDH message levels to compensate for variations in total RNA quantity in the input sample. This was done by generating GAPDH Ct values for each cell line. Ct values for the gene or fragments thereof of interest and GAPDH were inserted into the δδCt equation: Relative Quantity of Nucleic Acid Template=2^δδCt=2^(δCta-δCtb)(δCta=Ct target−Ct GAPDH, δCtb=Ct reference−Ct GAPDH) which was used to calculate a normalized relative message level. […]

The test system of test [2] is mouse ortholog of W28729. As to the kind of experiment: Mouse ortholog of W28729 expression in PBMC of tumor mice. Particulars: PBMC isolated from the tumor mice, compared with tumors. The test is classed as in vivo. As to the method: At the minimum efficacious dose (MED) of 18 mg/kg/day, the induction was sustained for more than 6 hours. In an infusion regimen using the minimum efficacious dose of 40 mg/kg, gene induction was sustained for at least 16 hours. […] Treatment with an efficacious regimen results in >2 fold induction of the sequence for 6 hours or longer. […] In addition, these observations support the use of PBMC as a surrogate tissue for monitoring changes in gene expression, that result from treatment with the cdk2 inhibitor.

Test [3] relates to A2780 xenografts. As to the kind of experiment: Anti-tumor efficacy in A2780 xenografts (minimum efficacious dose). The test is classed as in vivo, mouse. As to the method: The human ovarian carcinoma xenograft A2780s were maintained in Balb/c nu/nu nude mice. Tumors were propagated as subcutaneous (sc) transplants using tumor fragments obtained from donor mice. For the cdk2 inhibitor treatment, tumors were allowed to grow to the pre-determined size window of approximately 100-200 mg (tumors outside the range were excluded) and animals were evenly distributed to various treatment and control groups (n=6). Treatment of each animal was based on individual body weight. The cdk2 inhibitor was first dissolved in a mixture of Cremophor®/ethanol (50:50). One hour prior to administration, the cdk2 inhibitor was diluted with water so that the dosing solutions contained the specified excipient composition, i.e., Cremophor®/ethanol/water (1:1:8, v/v). The volume of all compounds injected was 0.01 ml/gm of mice. The cdk2 inhibitor was administered as a bolus injection intraperitoneal at doses of 36 and 18 mg/kg. Tumor and plasma were sampled at the time points of 4, 7, and 24 hour post treatment. Plasma sample was frozen immediately at −80° C. for pharmacokinetic analysis, and tumor sample was preserved in RNAase free buffer for pharmacogenomic analysis. […] At the minimum efficacious dose (MED) of 18 mg/kg/day, the induction was sustained for more than 6 hours. […]

Consider `CC(C)(C)c1cnc(CSc2cnc(NC(=O)C3CCNCC3)s2)o1` [cdk2 inhibitor, N-5-[[5-(1,1-Dimethylethyl)-2-oxazolyl]methyl]thio]-2-thiazolyl-4-piperidinecarboxamide, 0.5-L-tartaric acid salt], for which, in test [1], the W28729 expression change result is listed as “Upregulation of W28729 expression”. The “induction of the mouse ortholog sequence in PBMC” value in test [2] was “strikingly similar pattern of induction”. Also, in test [3] (bolus i.p.), the “minimum efficacious dose (MED)” value is recorded as 18 mg/kg/day. The minimum efficacious dose in test [3] (infusion regimen) turned out to be 40 mg/kg.
